Laboratory results as given in patent US20220289715A1, “PESTICIDALLY ACTIVE PYRAZINE-AMIDE COMPOUNDS” (priority 2019, published 2022).

Experiments:
Type in all cases: in vivo
[1] = tested on: Plutella xylostella (Diamondback Moth); experiment: Example B9: Plutella xylostella, artificial diet, 96-well; details: 216 h, application rate of 500 ppm, eggs/L1 larvae, 9 days after infestation
Method: Example B9: Plutella xylostella (Diamondback Moth)
96-well microtiter plates containing artificial diet were treated with aqueous test solutions, prepared from 10,000 ppm DMSO stock solutions, by a liquid handling robot. After drying, eggs (˜30 per well) were infested onto a netted lid which was suspended above the diet. The eggs hatch and L1 larvae move down to the diet. The samples were assessed for mortality 9 days after infestation.
The following compounds gave an effect of at least 80% mortality at an application rate of 500 ppm: […]

[2] = tested on: Spodoptera littoralis (Egyptian Cotton Leaf Worm); experiment: Example B6: Spodoptera littoralis, spray on cotton leaf discs; details: foliar, 72 h, application rate of 200 ppm, L1 larvae, 3 days after infestation, read-out: control in at least one of the three categories (mortality, anti-feedant effect, or growth inhibition)
Method: Example B6: Spodoptera littoralis (Egyptian Cotton Leaf Worm)
Cotton leaf discs were placed onto agar in 24-well microtiter plates and sprayed with aqueous test solutions prepared from 10,000 ppm DMSO stock solutions. After drying the leaf discs were infested with five L1 larvae. The samples were assessed for mortality, anti-feeding effect, and growth inhibition in comparison to untreated samples 3 days after infestation. Control of Spodoptera littoralis by a test sample is given when at least one of the categories mortality, anti-feedant effect, and growth inhibition is higher than the untreated sample.

[3] = tested on: Plutella xylostella (Diamond Back Moth); experiment: Example B4: Plutella xylostella, artificial diet, 24-well; details: 192 h, application rate of 200 ppm, eggs, 8 days after infestation, read-out: control in at least one of the two categories (mortality or growth inhibition)
Method: Example B4: Plutella xylostella (Diamond Back Moth)
24-well microtiter plates with artificial diet were treated with aqueous test solutions prepared from 10,000 ppm DMSO stock solutions by pipetting. After drying, Plutella eggs were pipetted through a plastic stencil onto a gel blotting paper and the plate was closed with it. The samples were assessed for mortality and growth inhibition in comparison to untreated samples 8 days after infestation.
(§1) The following compounds gave an effect of at least 80% control in at least one of the two categories (mortality or growth inhibition) at an application rate of 200 ppm: […]

[4] = tested on: Diabrotica balteata (Corn Root Worm); experiment: Example B1: Diabrotica balteata, spray on maize sprouts; details: 96 h, application rate of 200 ppm, L2 larvae, 4 days after infestation, read-out: control in at least one of the two categories (mortality or growth inhibition)
Method: Example B1: Diabrotica balteata (Corn Root Worm)
Maize sprouts placed onto an agar layer in 24-well microtiter plates were treated with aqueous test solutions prepared from 10,000 ppm DMSO stock solutions by spraying. After drying, the plates were infested with L2 larvae (6 to 10 per well). The samples were assessed for mortality and growth inhibition in comparison to untreated samples 4 days after infestation.
as §1

[5] = tested on: Chilo suppressalis (Striped Rice Stemborer); experiment: Example B3: Chilo suppressalis, artificial diet; details: 144 h, application rate of 200 ppm, L2 larvae, 6 days after infestation, read-out: control in at least one of the three categories (mortality, anti-feedant effect, or growth inhibition)
Method: Example B3: Chilo suppressalis (Striped Rice Stemborer)
24-well microtiter plates with artificial diet were treated with aqueous test solutions prepared from 10,000 ppm DMSO stock solutions by pipetting. After drying, the plates were infested with L2 larvae (6-8 per well). The samples were assessed for mortality, anti-feeding effect, and growth inhibition in comparison to untreated samples 6 days after infestation. Control of Chilo suppressalis by a test sample is given when at least one of the categories mortality, anti-feedant effect, and growth inhibition is higher than the untreated sample.

CC(NC(=O)c1cc(C2CC2C(F)(F)F)cc(C(F)(F)F)c1)c1nccnc1-n1nccn1 (centres unmarked) [Compound P9, N-[1-[3-(triazol-2-yl)pyrazin-2-yl]ethyl]-3-(trifluoromethyl)-5-[2-(trifluoromethyl)cyclopropyl]benzamide]
≥ 80%: mortality at 500 ppm [1] | percent control (mortality, anti-feedant effect or growth inhibition) at 200 ppm [2] | percent control (mortality or growth inhibition) at 200 ppm [3] | percent control (mortality or growth inhibition) at 200 ppm [4] | percent control (mortality, anti-feedant effect or growth inhibition) at 200 ppm [5]

CO/N=C(\C)c1cnn(-c2nccnc2C(C)NC(=O)c2cc(C(F)(F)F)cc(C(F)(F)F)c2)n1 (centres unmarked) [Compound P54, N-[1-[3-[4-[(E)-N-methoxy-C-methyl-carbonimidoyl]triazol-2-yl]pyrazin-2-yl]ethyl]-3,5-bis(trifluoromethyl)benzamide]
≥ 80%: percent control (mortality, anti-feedant effect or growth inhibition) at 200 ppm [2] | percent control (mortality or growth inhibition) at 200 ppm [3] | percent control (mortality or growth inhibition) at 200 ppm [4]

CC(=O)c1cn(-c2nccnc2C(C)NC(=O)c2cc(C(F)(F)F)cc(C(F)(F)F)c2)nn1 (centres unmarked) [Compound P55, N-[1-[3-(4-acetyltriazol-1-yl)pyrazin-2-yl]ethyl]3,5-bis(trifluoromethyl)benzamide]
≥ 80%: percent control (mortality or growth inhibition) at 200 ppm [3] | percent control (mortality, anti-feedant effect or growth inhibition) at 200 ppm [5]

CC(c1nccnc1-n1nccn1)N(CC1CC1)C(=O)c1cc(C(F)(F)F)cc(C(F)(F)F)c1 (centres unmarked) [Compound P50, N-(cyclopropylmethyl)-N-[1-[3-(triazol-2-yl)pyrazin-2-yl]ethyl]-3,5-bis(trifluoromethyl)benzamide]
≥ 80%: mortality at 500 ppm [1] | percent control (mortality, anti-feedant effect or growth inhibition) at 200 ppm [2] | percent control (mortality or growth inhibition) at 200 ppm [3] | percent control (mortality or growth inhibition) at 200 ppm [4]

CC(NC(=O)c1cc(C2CC2)cc(C(F)(F)F)c1)c1nccnc1-n1nccn1 (centres unmarked) [Compound P15, 3-cyclopropyl-N-[1-[3-(triazol-2-yl)pyrazin-2-yl]ethyl]-5-(trifluoromethyl)benzamide]
≥ 80%: mortality at 500 ppm [1] | percent control (mortality, anti-feedant effect or growth inhibition) at 200 ppm [2] | percent control (mortality or growth inhibition) at 200 ppm [3] | percent control (mortality or growth inhibition) at 200 ppm [4] | percent control (mortality, anti-feedant effect or growth inhibition) at 200 ppm [5]

CC(NC(=O)c1cc(C(F)(F)F)cc(C(F)(F)F)c1)c1nccnc1-n1ncc(I)n1 (centres unmarked) [Compound P53, N-[1-[3-(4-iodotriazol-2-yl)pyrazin-2-yl]ethyl]-3,5-bis(trifluoromethyl)benzamide]
≥ 80%: percent control (mortality, anti-feedant effect or growth inhibition) at 200 ppm [2] | percent control (mortality or growth inhibition) at 200 ppm [3] | percent control (mortality or growth inhibition) at 200 ppm [4] | percent control (mortality, anti-feedant effect or growth inhibition) at 200 ppm [5]

Cc1cnn(-c2nccnc2C(C)NC(=O)c2cc(C(F)(F)F)cc(C(F)(F)F)c2)n1 (centres unmarked) [Compound P1, N-[1-[3-(4-methyltriazol-2-yl)pyrazin-2-yl]ethyl]-3,5-bis(trifluoromethyl)benzamide]
≥ 80%: mortality at 500 ppm [1] | percent control (mortality or growth inhibition) at 200 ppm [3] | percent control (mortality, anti-feedant effect or growth inhibition) at 200 ppm [5]

COc1cc(C(=O)NC(C)c2nccnc2-n2nccn2)cc(Cl)n1 (centres unmarked) [Compound P32, 2-chloro-6-methoxy-N-[1-[3-(triazol-2-yl)pyrazin-2-yl]ethyl]pyridine-4-carboxamide]
≥ 80%: mortality at 500 ppm [1]

CC(NC(=O)c1cc(C(F)(F)F)cc(C(F)(F)F)c1)c1nccnc1-n1cccn1 (centres unmarked) [Compound P45]
≥ 80%: percent control (mortality or growth inhibition) at 200 ppm [4]

Cc1cn(-c2nccnc2C(C)NC(=O)c2cc(C(F)(F)F)cc(C(F)(F)F)c2)nn1 (centres unmarked) [Compound P41, N-[1-[3-(4-methyltriazol-1-yl)pyrazin-2-yl]ethyl]-3,5-bis(trifluoromethyl)benzamide]
≥ 80%: mortality at 500 ppm [1] | percent control (mortality, anti-feedant effect or growth inhibition) at 200 ppm [2] | percent control (mortality or growth inhibition) at 200 ppm [3] | percent control (mortality, anti-feedant effect or growth inhibition) at 200 ppm [5]

CC(NC(=O)c1cc(C(F)(F)F)cc(C(F)(F)F)c1)c1nccnc1-n1nnc2ccccc21 (centres unmarked) [Compound P51, N-[1-[3-(benzotriazol-1-yl)pyrazin-2-yl]ethyl]-3,5-bis(trifluoromethyl)benzamide]
≥ 80%: mortality at 500 ppm [1] | percent control (mortality or growth inhibition) at 200 ppm [3]

Cc1cc(C)cc(C(=O)NC(C)c2nccnc2-n2nccn2)c1 (centres unmarked) [Compound P24, 3,5-dimethyl-N-[1-[3-(triazol-2-yl)pyrazin-2-yl]ethyl]benzamide]
≥ 80%: mortality at 500 ppm [1]

CC(=O)c1cnn(-c2nccnc2C(C)NC(=O)c2cc(C(F)(F)F)cc(C(F)(F)F)c2)n1 (centres unmarked) [Compound P57, N-[1-[3-(4-acetyltriazol-2-yl)pyrazin-2-yl]ethyl]-3,5-bis(trifluoromethyl)benzamide]
≥ 80%: percent control (mortality or growth inhibition) at 200 ppm [3] | percent control (mortality, anti-feedant effect or growth inhibition) at 200 ppm [5]

CC(NC(=O)c1cc(OCC(F)(F)F)cc(C(F)(F)F)c1)c1nccnc1-n1nccn1 (centres unmarked) [Compound P8, N-[1-[3-(triazol-2-yl)pyrazin-2-yl]ethyl]-3-(2,2,2-trifluoroethoxy)-5-(trifluoromethyl)benzamide]
≥ 80%: percent control (mortality, anti-feedant effect or growth inhibition) at 200 ppm [2] | percent control (mortality or growth inhibition) at 200 ppm [3] | percent control (mortality or growth inhibition) at 200 ppm [4] | percent control (mortality, anti-feedant effect or growth inhibition) at 200 ppm [5]

CC(NC(=O)c1cc(F)cc(Cl)c1)c1nccnc1-n1nccn1 (centres unmarked) [Compound P25, 3-chloro-5-fluoro-N-[1-[3-(triazol-2-yl)pyrazin-2-yl]ethyl]benzamide]
≥ 80%: mortality at 500 ppm [1] | percent control (mortality or growth inhibition) at 200 ppm [3] | percent control (mortality or growth inhibition) at 200 ppm [4]

CC(NC(=O)c1cc(C(F)(F)F)cc(C(F)(F)F)c1)c1nccnc1-n1ccnn1 (centres unmarked) [Compound P44, N-[1-[3-(triazol-1-yl)pyrazin-2-yl]ethyl]-3,5-bis(trifluoromethyl)benzamide]
≥ 80%: percent control (mortality, anti-feedant effect or growth inhibition) at 200 ppm [2] | percent control (mortality or growth inhibition) at 200 ppm [3] | percent control (mortality or growth inhibition) at 200 ppm [4] | percent control (mortality, anti-feedant effect or growth inhibition) at 200 ppm [5]

CC(NC(=O)c1cc(C(F)(F)F)cc(C(F)(F)F)c1)c1nccnc1-n1cc(C#N)cn1 (centres unmarked) [Compound P47, N-[1-[3-(4-cyanopyrazol-1-yl)pyrazin-2-yl]ethyl]-3,5-bis(trifluoromethyl)benzamide]
≥ 80%: percent control (mortality, anti-feedant effect or growth inhibition) at 200 ppm [2] | percent control (mortality or growth inhibition) at 200 ppm [3] | percent control (mortality or growth inhibition) at 200 ppm [4] | percent control (mortality, anti-feedant effect or growth inhibition) at 200 ppm [5]

CC(NC(=O)c1cc(C(F)(F)F)cc(C(F)(F)F)c1)c1nccnc1-n1cc(C2CC2)nn1 (centres unmarked) [Compound P42, N-[1-[3-(4-cyclopropyltriazol-1-yl)pyrazin-2-yl]ethyl]-3,5-bis(trifluoromethyl)benzamide]
≥ 80%: mortality at 500 ppm [1] | percent control (mortality, anti-feedant effect or growth inhibition) at 200 ppm [2] | percent control (mortality or growth inhibition) at 200 ppm [3] | percent control (mortality, anti-feedant effect or growth inhibition) at 200 ppm [5]

Cc1cnc(C(C)NC(=O)c2cc(C(F)(F)F)cc(C(F)(F)F)c2)c(-n2nccn2)n1 (centres unmarked) [Compound P18, N-[1-[5-methyl-3-(triazol-2-yl)pyrazin-2-yl]ethyl]-3,5-bis(trifluoromethyl)benzamide]
≥ 80%: percent control (mortality or growth inhibition) at 200 ppm [3] | percent control (mortality, anti-feedant effect or growth inhibition) at 200 ppm [5]

CC(c1nccnc1-n1cncn1)N(CC1CC1)C(=O)c1cc(C(F)(F)F)cc(C(F)(F)F)c1 (centres unmarked) [Compound P48, N-(cyclopropylmethyl)-N-[1-[3-(1,2,4-triazol-1-yl)pyrazin-2-yl]ethyl]-3,5-bis(trifluoromethyl)benzamide]
≥ 80%: mortality at 500 ppm [1] | percent control (mortality, anti-feedant effect or growth inhibition) at 200 ppm [2] | percent control (mortality or growth inhibition) at 200 ppm [3] | percent control (mortality or growth inhibition) at 200 ppm [4]
